Test results taken from patent US20210330611A1, “THERAPY FOR NEUROLOGICAL DISEASES/DISORDERS” (priority 2020, published 2021).
Where a name gives a salt, the structure may show the parent alone. Read-outs that look alike come from different tables or passages of the source.

Experiments:
[1] = tested on: fibrin-induced microglia activation; test: Image-based assay of fibrin-induced microglia activation (HTS and dose response); format: cell-based, rat; conditions: for inhibition at 10 µM: Rattus norvegicus, Microglia, read-out: Fibrin % inhibition
[2] = tested on: LPS-induced microglia activation; test: Image-based assay of LPS-induced microglia activation (HTS and dose response); format: cell-based, rat; conditions: for inhibition at 10 µM: Rattus norvegicus, Microglia, read-out: LPS % inhibition
[3] = tested on: fibrin- and LPS-induced microglia activation; test: cells; format: cell-based, rat
primary rat microglia [4] = test: Cell toxicity (dead cells, size <150 μm2) in LPS assay
primary rat microglia [5] = test: Cell toxicity (dead cells, size <150 μm2) in coated fibrin (cFib) assay;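 further: share of dead cells sized under 150 µm2 at 10 µM in fibrin-stimulated microglia HTS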
[6] = primary HTS, 10 μM, fibrin-stimulated primary microglia
[7] = primary HTS, 10 μM, LPS-stimulated primary microglia
[8] = primary HTS, 10 μM, LPS assay, dead cells size <150 μm2
[9] = primary HTS, 10 μM, fibrin assay, dead cells size <150 μm2
[10] = primary microglia HTS, fibrin stimulation, increased cell size (>800 μm^2) as marker of activation
[11] = 48 h, primary microglia HTS, LPS stimulation, increased cell size (>800 μm^2) as marker of activation
[12] = quadrant by fibrin and LPS inhibition in HTS of 1907 compounds
[13] = primary microglia HTS, LPS stimulation, decreased size (<150 μm^2) as marker of toxicity
[14] = primary microglia HTS, fibrin stimulation, decreased size (<150 μm^2) as marker of toxicity
[15] = primary microglia HTS, 10 μM, fibrin-stimulated, cell size >800 μm^2 as marker of activation
[16] = primary microglia HTS, 10 μM, LPS-stimulated, cell size >800 μm^2 as marker of activation
[17] = HTS of 1907 compounds, quadrant by fibrin and LPS inhibition
[18] = primary microglia HTS, 10 μM, LPS assay, cell size <150 μm^2 as marker of toxicity
[19] = primary microglia HTS, 10 μM, fibrin assay, cell size <150 μm^2 as marker of toxicity
[20] = primary microglia HTS, fibrin stimulation, activation = cell size >800 μm2
[21] = 48 h, primary microglia HTS, LPS stimulation, activation = cell size >800 μm2
[22] = primary microglia HTS, LPS stimulation, toxicity = cell size <150 μm2
[23] = primary microglia HTS, fibrin stimulation, toxicity = cell size <150 μm2

In the case of `C[C@H](CS)C(=O)N1CCC[C@H]1C(=O)O` [Captopril], the inhibition at 10 µM [1, 6] was -11%, the inhibition at 10 µM [2, 7] was 12% and the “Quadrant (FIG. 5b)” value ([3]; primary HTS, 10 μM) was “Q4”. For the same compound, the “LPS % cell toxicity” value (primary rat microglia [4]; [8]) was 1% and the “Fibrin % cell toxicity” value (primary rat microglia [5]; [9]) was 1%.

In the case of `C[C@]12CCC(=O)C=C1CC[C@@H]1[C@@H]2CC[C@@]2(C)[C@H]1CC[C@]2(C)O` [Methyltestosterone], the inhibition at 10 µM [1, 10] was -40%, the inhibition at 10 µM [2, 11] was -2% and the “Quadrant (FIG. 5b)” value [3, 12] was “Q4”. For the same compound, the “LPS % cell toxicity” value (primary rat microglia [4]; [13]) was 0% and the “Fibrin % cell toxicity” value (primary rat microglia [5]; [14]) was 1%.

For `Cc1cc(-c2ccccc2)nnc1NCCN1CCOCC1` [Minaprine], the inhibition at 10 µM [1, 10] was -22%, the inhibition at 10 µM [2, 11] was 10% and the “Quadrant (FIG. 5b)” value [3, 12] was “Q4”. For the same compound, the “LPS % cell toxicity” value (primary rat microglia [4]; [13]) was 0% and the “Fibrin % cell toxicity” value (primary rat microglia [5]; [14]) was 0%.

For `Cl.NC1CCN(c2c(F)cc3c(=O)c(C(=O)O)cn(C4CC4)c3c2Cl)C1` (centres unmarked) [Clinafoxacin Hydrochloride], the Fibrin % inhibition [1, 6] was −22%, the LPS % inhibition [2, 7] was 9% and the “Quadrant (FIG. 5b)” value ([3]; primary HTS, 10 μM) was “Q4”. The “LPS % cell toxicity” value (primary rat microglia [4]; [8]) was 0% and the “Fibrin % cell toxicity” value (primary rat microglia [5]; [9]) was 0%.

`CC(C)[C@H](N)C(=O)OCC(CO)OCn1cnc2c(=O)nc(N)[nH]c21` (some centres unmarked) [Valganciclovir] was tested, and the inhibition at 10 µM [1, 15] was -12%, the inhibition at 10 µM [2, 16] was 14% and the “Quadrant (FIG. 5b)” value [3, 17] was “Q4”. For the same compound, the “LPS % cell toxicity” value (primary rat microglia [4]; [18]) was 1% and the “Fibrin % cell toxicity” value (primary rat microglia [5]; [19]) was 0%.

In the case of `O=C(O)C1=C(CSc2nnnn2CS(=O)(=O)O)CS[C@@H]2[C@H](NC(=O)[C@H](O)c3ccccc3)C(=O)N12` [Cefonicid Sodium], the inhibition at 10 µM [1, 6] was -11%, the inhibition at 10 µM [2, 7] was 15% and the “Quadrant (FIG. 5b)” value ([3]; primary HTS, 10 μM) was “Q4”. The “LPS % cell toxicity” value (primary rat microglia [4]; [8]) was 0% and the “Fibrin % cell toxicity” value (primary rat microglia [5]; [9]) was 0%.

In the case of `CS(=O)(=O)c1ccc([C@@H](O)[C@@H](CO)NC(=O)C(Cl)Cl)cc1` [Thiamphenicol], the inhibition at 10 µM [1, 15] was -19%, the inhibition at 10 µM [2, 16] was 12% and the “Quadrant (FIG. 5b)” value [3, 17] was “Q4”. The “LPS % cell toxicity” value (primary rat microglia [4]; [18]) was 0% and the “Fibrin % cell toxicity” value (primary rat microglia [5]; [19]) was 0%.

With `CC(C)Nc1ncccn1` [Isaxonine] the inhibition at 10 µM [1, 20] was -46%, the inhibition at 10 µM [2, 21] was -1% and the “Quadrant (FIG. 5b)” value [3, 12] was “Q4”. The “LPS % cell toxicity” value (primary rat microglia [4]; [22]) was 0% and the “Fibrin % cell toxicity” value (primary rat microglia [5]; [23]) was 0%.

In the case of `O=C(c1ccc(F)cc1)C1CCN(CCn2c(=O)[nH]c3ccccc3c2=O)CC1` [Ketanserin Tartrate], the inhibition at 10 µM [1, 20] was 17%, the inhibition at 10 µM [2, 21] was 15% and the “Quadrant (FIG. 5b)” value [3, 12] was “Q4”. The “LPS % cell toxicity” value (primary rat microglia [4]; [22]) was 0% and the “Fibrin % cell toxicity” value (primary rat microglia [5]; [23]) was 1%.

With `CC(=O)Nc1ncc([N+](=O)[O-])s1` [Nithiamide] the inhibition at 10 µM [1, 10] was 3%, the inhibition at 10 µM [2, 11] was 21% and the “Quadrant (FIG. 5b)” value [3, 12] was “Q4”. The “LPS % cell toxicity” value (primary rat microglia [4]; [13]) was 1% and the “Fibrin % cell toxicity” value (primary rat microglia [5]; [14]) was 1%.

With `CC(=O)[C@H]1CC[C@H]2[C@@H]3CC[C@H]4C[C@](C)(O)CC[C@]4(C)[C@H]3CC[C@]12C` [Ganaxolone] the inhibition at 10 µM [1, 20] was -38%, the inhibition at 10 µM [2, 21] was 12% and the “Quadrant (FIG. 5b)” value [3, 12] was “Q4”. For the same compound, the “LPS % cell toxicity” value (primary rat microglia [4]; [22]) was 0% and the “Fibrin % cell toxicity” value (primary rat microglia [5]; [23]) was 1%.

In the case of `NS(=O)(=O)c1cc2c(cc1Cl)N=CNS2(=O)=O` [Chlorothiazide], the inhibition at 10 µM [1, 6] was 20%, the inhibition at 10 µM [2, 7] was 3% and the “Quadrant (FIG. 5b)” value ([3]; primary HTS, 10 μM) was “Q4”. The “LPS % cell toxicity” value (primary rat microglia [4]; [8]) was 0% and the “Fibrin % cell toxicity” value (primary rat microglia [5]; [9]) was 0%.

`CN(C)C(=O)Oc1cccc([N+](C)(C)C)c1` [Neostigmine] was tested, and the inhibition at 10 µM [1, 10] was -15%, the inhibition at 10 µM [2, 11] was 15% and the “Quadrant (FIG. 5b)” value [3, 12] was “Q4”. For the same compound, the “LPS % cell toxicity” value (primary rat microglia [4]; [13]) was 0% and the “Fibrin % cell toxicity” value (primary rat microglia [5]; [14]) was 0%.

`Oc1c(Cl)cc(Cl)c(Cl)c1Cc1c(O)c(Cl)cc(Cl)c1Cl` [Hexachlorophene] was tested, and the inhibition at 10 µM [1] was -19%, the inhibition at 10 µM ([2]; 48 h) was 15% and the “Quadrant (FIG. 5b)” value [3, 12] was “Q4”. For the same compound, the “LPS % cell toxicity” value (primary rat microglia [4]; [22]) was 0% and the “Fibrin % cell toxicity” value (primary rat microglia [5]; [23]) was 0%.

With `NC(=O)c1cc[n+](CC2=C(C(=O)[O-])N3C(=O)[C@@H](NC(=O)Cc4cccs4)[C@H]3SC2)cc1` [Cefalonium] the inhibition at 10 µM [1, 6] was 9%, the inhibition at 10 µM [2, 7] was 11% and the “Quadrant (FIG. 5b)” value ([3]; primary HTS, 10 μM) was “Q4”. For the same compound, the “LPS % cell toxicity” value (primary rat microglia [4]; [8]) was 0% and the “Fibrin % cell toxicity” value (primary rat microglia [5]; [9]) was 1%.

With `OC[C@@H](O)[C@@H](O[C@@H]1O[C@H](CO)[C@H](O)[C@H](O)[C@H]1O)[C@H](O)[C@@H](O)CO` [Lacitol] the Fibrin % inhibition [1, 20] was −24%, the LPS % inhibition ([2]; primary microglia HTS, LPS stimulation, activation = cell size >800 μm2) was 18% and the “Quadrant (FIG. 5b)” value [3, 12] was “Q4”. For the same compound, the “LPS % cell toxicity” value (primary rat microglia [4]; [22]) was 1% and the “Fibrin % cell toxicity” value (primary rat microglia [5]; [23]) was 1%.
